Patent US10098949B2, “Adsorption of immunopotentiators to insoluble metal salts” (GlaxoSmithKline Biologicals SA, priority 2010, dated 2018)
Like-named read-outs stand apart in the source and are kept apart here.

Tests used:
[1] = Adsorption to aluminium hydroxide (Al—H) adjuvant, supernatant by HPLC; format: physicochemical; settings: for Adsorption Efficiency to aluminum hydroxide: 3 mg/mL aluminum hydroxide, 0.5 mg/mL compound, no buffer, room temperature overnight, RP-HPLC; for % adsorption to Al—H: 10 mM histidine buffer, pH 6.5
[2] = Model of in vivo desorption from Al—H; format: in vitro ADME; settings: 37° C., after 5 hours
[3] = system: serogroup B meningococcus; format: in vivo
human TLR7 = molecular target: T1, human TLR7 (Homo sapiens, UniProt Q9NYK1); assay: HEK293 human TLR7 NF-κB luciferase reporter assay; format: cell-based; settings: HEK293 cells
T1 construct: expressed in transfected cells; host or cells: HEK293
T1 sequence (Q9NYK1 27-1049): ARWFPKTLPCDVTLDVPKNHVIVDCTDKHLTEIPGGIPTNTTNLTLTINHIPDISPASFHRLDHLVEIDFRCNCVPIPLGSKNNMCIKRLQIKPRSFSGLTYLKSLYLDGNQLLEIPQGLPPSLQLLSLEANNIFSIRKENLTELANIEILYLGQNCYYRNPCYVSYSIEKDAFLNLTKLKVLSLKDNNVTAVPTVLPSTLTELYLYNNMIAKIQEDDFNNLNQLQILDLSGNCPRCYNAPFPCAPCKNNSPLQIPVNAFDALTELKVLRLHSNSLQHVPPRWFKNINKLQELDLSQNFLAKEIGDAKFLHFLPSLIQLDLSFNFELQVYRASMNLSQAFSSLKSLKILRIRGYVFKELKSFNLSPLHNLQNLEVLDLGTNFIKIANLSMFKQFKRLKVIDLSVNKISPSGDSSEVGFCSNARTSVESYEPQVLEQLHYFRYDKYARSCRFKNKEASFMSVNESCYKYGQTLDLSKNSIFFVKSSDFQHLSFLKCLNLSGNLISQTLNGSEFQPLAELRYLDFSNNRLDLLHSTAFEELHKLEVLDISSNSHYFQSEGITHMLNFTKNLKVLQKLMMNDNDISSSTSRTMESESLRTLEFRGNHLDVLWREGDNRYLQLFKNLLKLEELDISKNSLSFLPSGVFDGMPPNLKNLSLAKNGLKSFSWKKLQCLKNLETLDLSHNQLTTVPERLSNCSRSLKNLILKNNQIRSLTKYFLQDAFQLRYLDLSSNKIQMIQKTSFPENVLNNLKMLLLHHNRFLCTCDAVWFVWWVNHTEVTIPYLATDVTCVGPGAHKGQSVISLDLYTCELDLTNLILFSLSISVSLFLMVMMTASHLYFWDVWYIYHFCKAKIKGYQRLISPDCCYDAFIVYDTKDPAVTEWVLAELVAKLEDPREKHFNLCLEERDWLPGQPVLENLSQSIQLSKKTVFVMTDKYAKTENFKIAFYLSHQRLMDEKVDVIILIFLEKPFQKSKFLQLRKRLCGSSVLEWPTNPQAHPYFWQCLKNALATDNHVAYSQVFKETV
Protocol: The activity of this compound is assessed in an assay using HEK293 cells which are stably transfected with human TLR7 and an NF-κB-driven luciferase reporter vector (pNifty-Luciferase). As a control assay, normal HEK293 transfected with pNifty-Luc are used. Cells are cultured in DMEM supplemented with 2 mM L-glutamine, 10% heart inactivated FBS, 1% penicillin and streptomycin, 2 μg/ml puromycin and 5 μg/ml of blasticidin. Bright-Glo™ Luciferase assay buffer and substrate are supplied by Promega. Cells are plated at 25,000 cells/well in 384-well plates in a final volume of 50 μl of media. Cells are allowed to adhere to the plates after overnight (18 hours) culture at 37° C. and 5% CO2. Serially-diluted experimental and positive control compounds are then dispensed to each well and incubated for 7 hours at 37° C. and 5% CO2. Cells stimulated with DMSO alone serve as negative controls. After the incubation, 30 μl of the pre-mix assay buffer and substrate buffer are added to each well according to manufacturer's instructions. The luminescence signal is read on a CLIPR machine with an integration time of 20 seconds per plate.

[4] = Muscle levels 24 hours after intramuscular injection; format: in vivo, Balb/C mice; settings: for level of compound in muscle: 24 hours after i.m. injection
serum cytokines = settings: in vivo
splenocytes = assay: Activity in splenocytes; format: cell-based
[5] = Solubility in water and in histidine buffer; format: physicochemical; settings: pH 6.8
human PBMCs = assay: Activity in human PBMCs; format: cell-based
[6] = Association with Al—H particles by confocal microscopy and flow cytometry; format: physicochemical; settings: confocal microscopy (compound 1) or flow cytometry (compounds 2, O)
[7] = SIF (simulated interstitial fluid)
[8] = 5CVMB, CD-1 mice, days 0 & 14, (b) the agonist compound

Row | Compound | % adsorption to Al—H [1] | activity compared to resiquimod (set to 100%) (human TLR7) [%] | level of compound in muscle ([4]; without Al—H (free form)) | SBA titer at day 28 ([3]; in vivo) | activity compared to resiquimod (set to 100%) (splenocytes) [%] | EC50 (splenocytes; Splenocyte, read-out: EC50) [µM] | solubility in histidine buffer [5] | activity compared to resiquimod (set to 100%) (human PBMCs) [%] | EC50 (human PBMCs; PBMC, read-out: EC50) [µM] | also measured
1 | Cc1ccc2c(c1)nc(N)c1ncc(CCc3ccc(OP(=O)(O)O)cc3C)cc12 [Compound 102] | – | – | – | – | – | – | – | – | – | Adsorption Efficiency to aluminum hydroxide [1]: 85.1%; Adsorption Efficiency to aluminum hydroxide ([1]; listed as compound 102): > 80%
2 | Cc1cc(OCCOCCOCCC(F)(F)P(=O)(O)O)ccc1CCc1cnc2c(N)nc3cc(CCC(=O)O)ccc3c2c1 [Compound 4] | 96.0% | – | – | – | – | – | – | – | – | proportion desorbed from Al—H ([2]; His buff): 4%; proportion desorbed from Al—H ([2]; Plasma/His buff): 81%; proportion desorbed from Al—H [2, 7]: 100%; compound in supernatant after mixing with aluminium hydroxide (HPLC) [1]: neither compound is observed in the supernatant
3 | CCOCc1nc2c(N)nc3ccccc3c2n1CC(C)(C)O [resiquimod, reference compound] | – | – | – | – | – | – | – | – | – | SBA titer at day 28 ([3]; 5CVMB, CD-1 mice, days 0 & 14, (e) resiquimod+Al—H, positive control): 1033
4 | COCCOc1cc2c(nc(O)n2Cc2ccc(CP(=O)(O)O)cc2)c(N)n1 [Compound 67, (4-((4-amino-6-(2-methoxyethoxy)-2-oxo-2,3-dihydro-1H-imidazo[4,5-c]pyridin-1-yl)methyl)benzyl)phosphonic Acid] | 82% | 103 | undetectable | 949 | 142 | 9.3 | soluble | 59 | 0.8 | level of compound in muscle ([4]; +Al—H): readily detected; SBA titer at day 28 [3, 8]: 64; systemic cytokines, effect of adsorption to Al—H (serum cytokines): generally reduced or unaffected
5 | COCCOc1nc(N)c2nc(O)n(Cc3ccc(CP(=O)(O)O)cc3)c2n1 [Compound 6, (4-((6-amino-2-(2-methoxyethoxy)-8-oxo-7H-purin-9(8H)-yl)methyl)benzyl)phosphonic Acid] | – | 93 | undetectable | 4016 | 210 | 0.98 | soluble | 35 | 1 | compound in inguinal lymph nodes or liver ([4]; after 24 hours): could not be detected; SBA titer at day 28 [3, 8]: 282
6 | CCOCc1nc2c(N)nc3ccccc3c2n1CCOCCP(=O)(O)O [Compound 7] | – | 55 | – | – | – | – | insoluble | – | – | EC50 (splenocytes): inactive; EC50 (human PBMCs): inactive
7 | CCCCCNc1nc(N)nc(C)c1Cc1ccc(CP(=O)(O)O)cc1 [Compound 69] | – | 36 | – | – | – | – | insoluble | – | – | EC50 (splenocytes): inactive; EC50 (human PBMCs): inactive
8 | Cc1cc(OCCCC(F)(F)P(=O)(O)O)ccc1CCc1cnc2c(N)nc3cc(CCC(=O)O)ccc3c2c1 [Compound 3] | 96.2% | – | – | – | – | – | – | – | – | proportion desorbed from Al—H ([2]; His buff): 5%; proportion desorbed from Al—H ([2]; Plasma/His buff): 49%; proportion desorbed from Al—H [2, 7]: 100%; compound in supernatant after mixing with aluminium hydroxide (HPLC) [1]: neither compound is observed in the supernatant
9 | CCCCCNc1nc(N)nc(C)c1Cc1ccc(OCCOCCC(F)(F)P(=O)(O)O)cc1OC [Compound 71, (3-(2-(4-((2-amino-4-methyl-6-(pentylamino)pyrimidin-5-yl)methyl)-3-methoxyphenoxy)ethoxy)-1,1-difluoropropyl)phosphonic Acid] | 85% | 53 | undetectable | 1653 | 239 | 10.5 | soluble | 50 | 9.5 | level of compound in muscle ([4]; +Al—H): readily detected; SBA titer at day 28 [3, 8]: 65; systemic cytokines, effect of adsorption to Al—H (serum cytokines): generally reduced or unaffected
10 | CCOCc1nc2c(N)nc3ccccc3c2n1CCOCCOCCOCCP(=O)(O)O [Compound 68, (2-(2-(2-(2-(4-amino-2-(ethoxymethyl)-1H-imidazo[4,5-c]quinolin-1-yl)ethoxy)ethoxy)ethoxy)ethyl)phosphonic Acid] | 94% | 75 | undetectable | 404 | – | – | soluble | – | – | level of compound in muscle ([4]; +Al—H): readily detected; systemic cytokines, effect of adsorption to Al—H (serum cytokines): generally reduced or unaffected; EC50 (splenocytes): inactive; EC50 (human PBMCs): inactive
11 | Cc1ccc(CCc2cnc3c(N)nc4cc(C)ccc4c3c2)c(C)c1 [O, reference compound] | fails to adsorb | – | – | – | – | – | – | – | – | association with Al—H particles [6]: seen as a separate population
12 | CCCCCNc1nc(N)nc(C)c1Cc1ccc(CP(=O)(O)O)cc1OC [Compound 8] | – | 81 | – | – | 184 | 3.1 | insoluble | 50 | 10.4 | –
